Measured values as given in the supplement of paper PMC10307832.

Key:
Assay in all cases: relative viability (nuclei count vs DMSO), 5 days (fraction); higher = more cells survive
201T = system: 201T
Summary of the method: (§1)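 Relative viability is defined as nuclei in treated wells over nuclei in vehicle wells. Duplicate plates were run and medians reported. Lung cancer cell lines in 1536-well plates were dosed by pin tool one day after seeding, with one drug or with a fixed anchor-drug dose plus five library-drug doses (not always all listed) in √10 steps, and nuclei were counted after 5 days.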

BEN = system: BEN
Summary of the method: as §1

EMC-BAC-2 = system: EMC-BAC-2
Summary of the method: as §1

HARA = system: HARA
Summary of the method: as §1

HCC-44 = system: HCC-44
Summary of the method: as §1

LOU-NH91 = system: LOU-NH91
Summary of the method: as §1

NCI-H1395 = system: NCI-H1395
Summary of the method: as §1

NCI-H1993 = system: NCI-H1993
Summary of the method: as §1

NCI-H2023 = system: NCI-H2023
Summary of the method: as §1

NCI-H2087 = system: NCI-H2087
Summary of the method: as §1

NCI-H2126 = system: NCI-H2126
Summary of the method: as §1

NCI-H2347 = system: NCI-H2347
Summary of the method: as §1

NCI-H23 = system: NCI-H23
Summary of the method: as §1

NCI-H3122 = system: NCI-H3122
Summary of the method: as §1

NCI-H441 = system: NCI-H441
Summary of the method: as §1

NCI-H596 = system: NCI-H596
Summary of the method: as §1

NCI-H647 = system: NCI-H647
Summary of the method: as §1

NCI-H727 = system: NCI-H727
Summary of the method: as §1

NCI-H838 = system: NCI-H838
Summary of the method: as §1

Q: With `Cc1sc2c(c1C)C(c1ccc(Cl)cc1)=N[C@@H](CC(=O)OC(C)(C)C)c1nnc(C)n1-2` [JQ1] + CC1(C)CCC(c2ccc(Cl)cc2)=C(CN2CCN(c3ccc(C(=O)NS(=O)(=O)c4ccc(N[C@H](CCN5CCOCC5)CSc5ccccc5)c(S(=O)(=O)C(F)(F)F)c4)cc3)CC2)C1 [Navitoclax] (partner 0.5 µM) as the compound, how does the relative viability (201T; first compound 0.04 µM) read?
A: Its relative viability is 1.23.

Q: What about the relative viability (201T; first compound 0.1265 µM) of the same compound?
A: The relative viability was 0.977.

Q: What about the relative viability (201T; first compound 0.4 µM) of the same compound?
A: Its relative viability is 1.15.

Q: What about the relative viability (201T; first compound 1.265 µM) of the same compound?
A: Its relative viability is 0.842.

Q: What about the relative viability (201T; first compound 4 µM) of the same compound?
A: Its relative viability is 0.618.

Q: And the relative viability (BEN; first compound 0.04 µM)?
A: The relative viability was 0.0812.

Q: And the relative viability (BEN; first compound 0.1265 µM)?
A: Its relative viability is 0.082.

Q: And the relative viability (BEN; first compound 0.4 µM)?
A: The relative viability was 0.0765.

Q: And the relative viability (BEN; first compound 1.265 µM)?
A: The relative viability was 0.0678.

Q: And the relative viability (BEN; first compound 4 µM)?
A: Its relative viability is 0.0582.

Q: And the relative viability (EMC-BAC-2; first compound 0.04 µM)?
A: Its relative viability is 1.18.

Q: What about the relative viability (EMC-BAC-2; first compound 0.1265 µM) of the same compound?
A: Its relative viability is 1.18.

Q: What about the relative viability (EMC-BAC-2; first compound 0.4 µM) of the same compound?
A: Its relative viability is 1.01.

Q: What about the relative viability (EMC-BAC-2; first compound 1.265 µM) of the same compound?
A: Its relative viability is 0.61.

Q: And the relative viability (EMC-BAC-2; first compound 4 µM)?
A: The relative viability was 0.658.

Q: What about the relative viability (HARA; first compound 0.04 µM) of the same compound?
A: Its relative viability is 1.11.

Q: And the relative viability (HARA; first compound 0.1265 µM)?
A: The relative viability was 1.

Q: What about the relative viability (HARA; first compound 0.4 µM) of the same compound?
A: Its relative viability is 0.781.

Q: What about the relative viability (HARA; first compound 1.265 µM) of the same compound?
A: Its relative viability is 0.261.

Q: And the relative viability (HARA; first compound 4 µM)?
A: The relative viability was 0.234.

Q: What about the relative viability (HCC-44; first compound 0.04 µM) of the same compound?
A: Its relative viability is 1.02.

Q: What about the relative viability (HCC-44; first compound 0.1265 µM) of the same compound?
A: Its relative viability is 0.802.

Q: And the relative viability (HCC-44; first compound 0.4 µM)?
A: Its relative viability is 0.705.

Q: And the relative viability (HCC-44; first compound 1.265 µM)?
A: The relative viability was 0.265.

Q: And the relative viability (HCC-44; first compound 4 µM)?
A: Its relative viability is 0.389.

Q: And the relative viability (LOU-NH91; first compound 0.04 µM)?
A: Its relative viability is 0.637.

Q: What about the relative viability (LOU-NH91; first compound 0.1265 µM) of the same compound?
A: Its relative viability is 0.606.

Q: What about the relative viability (LOU-NH91; first compound 0.4 µM) of the same compound?
A: The relative viability was 0.413.

Q: And the relative viability (LOU-NH91; first compound 1.265 µM)?
A: The relative viability was 0.411.

Q: And the relative viability (LOU-NH91; first compound 4 µM)?
A: The relative viability was 0.429.

Q: And the relative viability (NCI-H1395; first compound 0.04 µM)?
A: Its relative viability is 1.13.

Q: And the relative viability (NCI-H1395; first compound 0.1265 µM)?
A: Its relative viability is 1.03.

Q: And the relative viability (NCI-H1395; first compound 0.4 µM)?
A: Its relative viability is 0.951.

Q: And the relative viability (NCI-H1395; first compound 1.265 µM)?
A: Its relative viability is 0.633.

Q: And the relative viability (NCI-H1395; first compound 4 µM)?
A: The relative viability was 0.516.

Q: What about the relative viability (NCI-H1993; first compound 0.04 µM) of the same compound?
A: Its relative viability is 0.929.

Q: And the relative viability (NCI-H1993; first compound 0.1265 µM)?
A: Its relative viability is 0.811.

Q: What about the relative viability (NCI-H1993; first compound 0.4 µM) of the same compound?
A: The relative viability was 0.861.

Q: And the relative viability (NCI-H1993; first compound 1.265 µM)?
A: Its relative viability is 0.85.

Q: What about the relative viability (NCI-H1993; first compound 4 µM) of the same compound?
A: Its relative viability is 0.875.

Q: What about the relative viability (NCI-H2023; first compound 0.04 µM) of the same compound?
A: The relative viability was 0.98.

Q: And the relative viability (NCI-H2023; first compound 0.1265 µM)?
A: Its relative viability is 0.915.

Q: And the relative viability (NCI-H2023; first compound 0.4 µM)?
A: Its relative viability is 0.846.

Q: What about the relative viability (NCI-H2023; first compound 1.265 µM) of the same compound?
A: The relative viability was 0.334.

Q: What about the relative viability (NCI-H2023; first compound 4 µM) of the same compound?
A: The relative viability was 0.369.

Q: And the relative viability (NCI-H2087; first compound 0.04 µM)?
A: The relative viability was 1.03.

Q: And the relative viability (NCI-H2087; first compound 0.4 µM)?
A: Its relative viability is 0.74.

Q: And the relative viability (NCI-H2087; first compound 1.265 µM)?
A: Its relative viability is 0.552.

Q: And the relative viability (NCI-H2087; first compound 4 µM)?
A: Its relative viability is 0.502.

Q: What about the relative viability (NCI-H2126; first compound 0.04 µM) of the same compound?
A: Its relative viability is 0.892.

Q: And the relative viability (NCI-H2126; first compound 0.1265 µM)?
A: Its relative viability is 0.733.

Q: What about the relative viability (NCI-H2126; first compound 0.4 µM) of the same compound?
A: Its relative viability is 0.843.

Q: What about the relative viability (NCI-H2126; first compound 1.265 µM) of the same compound?
A: Its relative viability is 0.578.

Q: What about the relative viability (NCI-H2126; first compound 4 µM) of the same compound?
A: The relative viability was 0.555.

Q: And the relative viability (NCI-H2347; first compound 0.04 µM)?
A: The relative viability was 0.782.

Q: What about the relative viability (NCI-H2347; first compound 0.1265 µM) of the same compound?
A: The relative viability was 0.691.

Q: And the relative viability (NCI-H2347; first compound 0.4 µM)?
A: Its relative viability is 0.571.

Q: And the relative viability (NCI-H2347; first compound 1.265 µM)?
A: The relative viability was 0.316.

Q: What about the relative viability (NCI-H2347; first compound 4 µM) of the same compound?
A: Its relative viability is 0.286.

Q: And the relative viability (NCI-H23; first compound 0.04 µM)?
A: Its relative viability is 0.687.

Q: What about the relative viability (NCI-H23; first compound 0.1265 µM) of the same compound?
A: The relative viability was 0.781.

Q: And the relative viability (NCI-H23; first compound 0.4 µM)?
A: Its relative viability is 0.62.

Q: What about the relative viability (NCI-H23; first compound 1.265 µM) of the same compound?
A: The relative viability was 0.395.

Q: And the relative viability (NCI-H23; first compound 4 µM)?
A: Its relative viability is 0.144.

Q: And the relative viability (NCI-H3122; first compound 0.04 µM)?
A: The relative viability was 1.01.

Q: What about the relative viability (NCI-H3122; first compound 0.1265 µM) of the same compound?
A: The relative viability was 1.01.

Q: What about the relative viability (NCI-H3122; first compound 0.4 µM) of the same compound?
A: Its relative viability is 1.07.

Q: And the relative viability (NCI-H3122; first compound 1.265 µM)?
A: Its relative viability is 0.552.

Q: What about the relative viability (NCI-H3122; first compound 4 µM) of the same compound?
A: Its relative viability is 0.511.

Q: And the relative viability (NCI-H441; first compound 0.04 µM)?
A: Its relative viability is 0.834.

Q: And the relative viability (NCI-H441; first compound 0.1265 µM)?
A: Its relative viability is 0.684.

Q: And the relative viability (NCI-H441; first compound 0.4 µM)?
A: The relative viability was 0.54.

Q: And the relative viability (NCI-H441; first compound 1.265 µM)?
A: Its relative viability is 0.528.

Q: What about the relative viability (NCI-H441; first compound 4 µM) of the same compound?
A: Its relative viability is 0.408.

Q: And the relative viability (NCI-H596; first compound 0.04 µM)?
A: The relative viability was 1.17.

Q: And the relative viability (NCI-H596; first compound 0.1265 µM)?
A: Its relative viability is 1.03.

Q: And the relative viability (NCI-H596; first compound 0.4 µM)?
A: The relative viability was 0.421.

Q: And the relative viability (NCI-H596; first compound 1.265 µM)?
A: The relative viability was 0.236.

Q: And the relative viability (NCI-H596; first compound 4 µM)?
A: Its relative viability is 0.23.

Q: What about the relative viability (NCI-H647; first compound 0.04 µM) of the same compound?
A: Its relative viability is 1.1.

Q: What about the relative viability (NCI-H647; first compound 0.1265 µM) of the same compound?
A: The relative viability was 0.709.

Q: And the relative viability (NCI-H647; first compound 0.4 µM)?
A: The relative viability was 0.498.

Q: What about the relative viability (NCI-H647; first compound 1.265 µM) of the same compound?
A: Its relative viability is 0.141.

Q: And the relative viability (NCI-H647; first compound 4 µM)?
A: Its relative viability is 0.0972.

Q: And the relative viability (NCI-H727; first compound 0.04 µM)?
A: Its relative viability is 0.436.

Q: What about the relative viability (NCI-H727; first compound 0.1265 µM) of the same compound?
A: Its relative viability is 0.453.

Q: What about the relative viability (NCI-H727; first compound 0.4 µM) of the same compound?
A: Its relative viability is 0.291.

Q: And the relative viability (NCI-H727; first compound 1.265 µM)?
A: Its relative viability is 0.209.

Q: And the relative viability (NCI-H727; first compound 4 µM)?
A: The relative viability was 0.252.

Q: What about the relative viability (NCI-H838; first compound 0.04 µM) of the same compound?
A: The relative viability was 1.1.

Q: And the relative viability (NCI-H838; first compound 0.1265 µM)?
A: Its relative viability is 0.592.

Q: What about the relative viability (NCI-H838; first compound 0.4 µM) of the same compound?
A: Its relative viability is 0.662.

Q: And the relative viability (NCI-H838; first compound 1.265 µM)?
A: The relative viability was 0.355.

Q: What about the relative viability (NCI-H838; first compound 4 µM) of the same compound?
A: The relative viability was 0.247.
